Reference: US7996156B2, “Methods for predicting properties of molecules” (priority 2002, dated 2011)
Where two headings read alike, the source gives them in different places.

Legend:
[1] = target: T1, aryl hydrocarbon receptor (AhR) (Rattus norvegicus, UniProt P41738); conditions: cited from earlier work; for Experimental Log EC50: rodent hepatic cytosol
T1 construct: rodent hepatic cytosol as a source of the AhR; from tissue; host or cells: rodent hepatic cytosol
T1 sequence (P41738 10-853): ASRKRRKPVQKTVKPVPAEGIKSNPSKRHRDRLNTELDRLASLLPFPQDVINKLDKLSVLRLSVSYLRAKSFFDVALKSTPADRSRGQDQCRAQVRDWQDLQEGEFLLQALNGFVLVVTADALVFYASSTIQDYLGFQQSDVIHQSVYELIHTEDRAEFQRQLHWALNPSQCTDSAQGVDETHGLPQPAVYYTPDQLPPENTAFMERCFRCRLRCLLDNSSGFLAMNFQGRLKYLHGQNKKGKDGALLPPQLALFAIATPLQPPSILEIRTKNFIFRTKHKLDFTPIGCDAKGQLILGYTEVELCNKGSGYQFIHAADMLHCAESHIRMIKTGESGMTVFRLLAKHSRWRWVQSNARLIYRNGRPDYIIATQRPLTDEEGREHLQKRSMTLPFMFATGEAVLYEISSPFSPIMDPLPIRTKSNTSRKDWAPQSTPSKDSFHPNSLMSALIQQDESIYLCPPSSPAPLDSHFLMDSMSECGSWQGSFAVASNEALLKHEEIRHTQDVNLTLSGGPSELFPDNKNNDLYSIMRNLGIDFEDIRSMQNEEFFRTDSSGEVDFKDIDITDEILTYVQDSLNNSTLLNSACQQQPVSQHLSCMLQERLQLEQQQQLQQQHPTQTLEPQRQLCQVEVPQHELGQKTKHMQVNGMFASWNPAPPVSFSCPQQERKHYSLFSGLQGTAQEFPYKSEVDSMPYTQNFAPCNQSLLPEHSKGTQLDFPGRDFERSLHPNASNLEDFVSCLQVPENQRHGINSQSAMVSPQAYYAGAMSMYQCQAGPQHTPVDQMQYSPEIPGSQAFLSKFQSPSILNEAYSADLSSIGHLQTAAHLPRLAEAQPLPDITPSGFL

estrogen receptor = target: T2, estrogen receptor (Rattus norvegicus, UniProt P06211); assay: Competitive ER binding assay with [3H]E2 in rat uterine cytosol (NCTR)
T2 construct: in rat uterine cytosol, which was obtained from ovariectomized uteri of Sprague-Dawley rats; from tissue; host or cells: uterine cytosol of ovariectomized Sprague-Dawley rats
T2 sequence (P06211 1-600): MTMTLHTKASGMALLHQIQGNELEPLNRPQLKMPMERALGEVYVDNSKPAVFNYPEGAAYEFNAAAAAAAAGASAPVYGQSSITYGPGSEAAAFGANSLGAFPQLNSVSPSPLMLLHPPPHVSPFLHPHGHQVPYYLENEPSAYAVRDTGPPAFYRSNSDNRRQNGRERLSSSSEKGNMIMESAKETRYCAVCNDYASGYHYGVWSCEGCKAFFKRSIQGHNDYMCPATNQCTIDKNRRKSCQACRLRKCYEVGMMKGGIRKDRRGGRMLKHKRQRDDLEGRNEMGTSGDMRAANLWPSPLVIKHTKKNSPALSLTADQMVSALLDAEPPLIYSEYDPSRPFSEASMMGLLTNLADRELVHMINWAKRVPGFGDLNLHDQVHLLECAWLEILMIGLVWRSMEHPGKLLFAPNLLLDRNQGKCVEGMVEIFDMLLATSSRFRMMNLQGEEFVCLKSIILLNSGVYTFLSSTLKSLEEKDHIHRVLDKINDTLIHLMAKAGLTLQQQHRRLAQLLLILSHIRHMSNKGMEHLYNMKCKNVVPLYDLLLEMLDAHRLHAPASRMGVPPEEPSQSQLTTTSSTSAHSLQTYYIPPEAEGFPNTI
Excerpt: The log relative binding activity (RBA) data for these 130 structurally diverse compounds was used to train the CoSCoSA models. The data was produced at NCTR using a competitive ER binding assay with radiolabeled estradiol ([^3H]E2) in rat uterine cytosol, which was obtained from ovariectomized uteri of Sprague-Dawley rats. […] For each of the 130 compounds, the ^13C 2D ^13C—^13C COSY NMR experiment was simulated using the ACD Labs CNMR version 5.0 2D predictor software. The COSY NMR spectra could be saved as two tables per compound.

[2] = log scale, competitive binding, [3H]-2,3,7,8-tetrachlorodioxin, previously reported training data
[3] = previously reported competitive in vitro AhR binding, [3H]-2,3,7,8-tetrachlorodioxin radioligand, values are log EC50
[4] = relative binding affinity vs 17-β-estradiol (RBA 100), rat uterine cytosol, 130 compound training set

Clc1cc2c(cc1Cl)Oc1c(Cl)c(Cl)c(Cl)c(Cl)c1O2 [1,2,3,4,7,8-hexaCl-dibenzodioxin]
Experimental Log EC50 [1, 2]: −7.55
Experimental Log EC50 [1, 3]: −7.55

Clc1cc2c(oc3c(Cl)cccc32)c(Cl)c1Cl [2,3,4,6-tetraCl-dibenzofuran]
Experimental Log EC50 [1, 2]: −7.46
Experimental Log EC50 [1, 3]: −7.46

Clc1ccc(-c2ccc(Cl)c(Cl)c2)cc1Cl [3,3′,4,4′-tetraCl-biphenyl]
Experimental Log EC50 [1, 2]: −7.37
Experimental Log EC50 [1, 3]: −7.37

Clc1cc(Cl)c2oc3cc(Cl)c(Cl)cc3c2c1 [2,3,6,8-tetraCldibenzofuran]
Experimental Log EC50 [1, 2]: −7.66
Experimental Log EC50 [1, 3]: −7.66

Clc1cc2oc3c(Cl)c(Cl)c(Cl)c(Cl)c3c2cc1Cl [1,2,3,4,7,8-hexaCl-dibenzofuran]
Experimental Log EC50 [1, 2]: −7.64
Experimental Log EC50 [1, 3]: −7.64

Clc1cc(-c2ccccc2)c(Cl)c(Cl)c1Cl [2,3,4,5-tetraCl-biphenyl]
Experimental Log EC50 [1, 2]: −4.85
Experimental Log EC50 [1, 3]: −4.85

Clc1cc2c(cc1Cl)Oc1c(ccc(Cl)c1Cl)O2 [2,3,6,7-tetraCl-dibenzodioxin]
Experimental Log EC50 [1, 2]: −7.79
Experimental Log EC50 [1, 3]: −7.79

Clc1cc(Cl)c2c(c1)oc1c(Cl)cc(Cl)c(Cl)c12 [1,2,4,7,9-pentaCl-dibenzofuran]
Experimental Log EC50 [1, 2]: −5.70
Experimental Log EC50 [1, 3]: −5.70

Clc1cc2oc3c(Cl)cccc3c2c(Cl)c1Cl [1,2,3,6-tetraCl-dibenzofuran]
Experimental Log EC50 [1, 2]: −7.46
Experimental Log EC50 [1, 3]: −7.46

Clc1cc(Cl)c(-c2cc(Cl)c(Cl)c(Cl)c2)cc1Cl [2,3′,4,4′,5,5′-hexaCl-biphenyl]
Experimental Log EC50 [1, 2]: −5.80
Experimental Log EC50 [1, 3]: −5.80

Clc1c(Cl)c(Cl)c2c(c1Cl)Oc1ccccc1O2 [1,2,3,4-tetraCldibenzodioxin]
Experimental Log EC50 [1, 2]: −6.88
Experimental Log EC50 [1, 3]: −6.88

Clc1cc2c(cc1Cl)Oc1c(cc(Cl)c(Cl)c1Cl)O2 [1,2,3,7,8-pentaCl-dibenzodioxin]
Experimental Log EC50 [1, 2]: −8.10
Experimental Log EC50 [1, 3]: −8.10

Clc1cc(Cl)c2c(c1)oc1c(Cl)c(Cl)c(Cl)cc12 [2,3,4,7,9-pentaCl-dibenzofuran]
Experimental Log EC50 [1, 2]: −7.70
Experimental Log EC50 [1, 3]: −7.70

Clc1cc2oc3c(Cl)c(Cl)cc(Cl)c3c2cc1Cl [1,3,4,7,8-pentaCl-dibenzofuran]
Experimental Log EC50 [1, 2]: −7.70
Experimental Log EC50 [1, 3]: −7.70

Clc1cccc2c1Oc1ccccc1O2 [1-Cl-dibenzodioxin]
Experimental Log EC50 [1, 2]: −5.00
Experimental Log EC50 [1, 3]: −5.00

Clc1ccc(-c2cc(Cl)c(Cl)c(Cl)c2Cl)cc1 [2,3,4,4′,5-pentaCl-biphenyl]
Experimental Log EC50 [1, 2]: −6.38
Experimental Log EC50 [1, 3]: −6.38

Clc1ccc(-c2cc(Cl)c(Cl)c(Cl)c2Cl)cc1Cl [2,3,3′,4,4′,5-hexaCl-biphenyl]
Experimental Log EC50 [1, 2]: −6.30
Experimental Log EC50 [1, 3]: −6.30

Clc1ccc(-c2ccc(Cl)c(Cl)c2Cl)cc1Cl [2,3,3′,4,4′-pentaCl-biphenyl]
Experimental Log EC50 [1, 2]: −6.15
Experimental Log EC50 [1, 3]: −6.15

Clc1ccc2c(c1)Oc1c(Cl)c(Cl)c(Cl)c(Cl)c1O2 [1,2,3,4,7-pentaCl-dibenzodioxin]
Experimental Log EC50 [1, 2]: −6.19
Experimental Log EC50 [1, 3]: −6.19

Clc1cc2c(cc1Cl)Oc1c(Cl)c(Cl)cc(Cl)c1O2 [1,2,4,7,8-pentaCl-dibenzodioxin]
Experimental Log EC50 [1, 2]: −6.96
Experimental Log EC50 [1, 3]: −6.96

Clc1cc2c(oc3c(Cl)c(Cl)c(Cl)cc32)c(Cl)c1Cl [2,3,4,6,7,8-hexaCl-dibenzofuran]
Experimental Log EC50 [1, 2]: −8.33
Experimental Log EC50 [1, 3]: −8.33

Clc1cc2oc3c(Cl)c(Cl)c(Cl)cc3c2cc1Cl [2,3,4,7,8-pentaCl-dibenzofuran]
Experimental Log EC50 [1, 2]: −8.82
Experimental Log EC50 [1, 3]: −8.82

Clc1cc(Cl)c2c(c1Cl)Oc1ccccc1O2 [1,2,4-triCl-dibenzodioxin]
Experimental Log EC50 [1, 2]: −5.88
Experimental Log EC50 [1, 3]: −5.88

Clc1cc2c(cc1Cl)Oc1cc(Cl)c(Cl)cc1O2 [2,3,7,8-tetraCl-dibenzodioxin]
binding to the AhR (in words) [1]: strong binder
Experimental Log EC50 [1, 2]: −9.00
Experimental Log EC50 [1, 3]: −9.00

Clc1ccc2c(c1)Oc1cc(Cl)ccc1O2 [2,8-diCl-dibenzodioxin]
Experimental Log EC50 [1, 2]: −6.49
Experimental Log EC50 [1, 3]: −6.49

Oc1ccc(C=Cc2ccc(O)cc2)cc1 [4,4′-dihroxystilbene]
Exp. Log(RBA) (estrogen receptor; [4]): −0.55

O=C(CCc1ccc(O)cc1)c1c(O)cc(O)cc1O [phloretin]
Exp. Log(RBA) (estrogen receptor): −1.16

Clc1cc2c(cc1Cl)Oc1c(Cl)cccc1O2 [2,3,6-triCl-dibenzodioxin]
Experimental Log EC50 [1, 2]: −7.66
Experimental Log EC50 [1, 3]: −7.66

Clc1cc2oc3cc(Cl)c(Cl)cc3c2cc1Cl [2,3,7,8-tetraCl-dibenzofuran]
binding to the AhR (in words) [1]: strong binder
Experimental Log EC50 [1, 2]: −8.60
Experimental Log EC50 [1, 3]: −8.60

CCOC(=O)c1ccc(O)cc1 [ethyl-4-hydrobenzoate]
Exp. Log(RBA) (estrogen receptor; [4]): −3.22

Clc1ccc(C(c2ccccc2Cl)C(Cl)(Cl)Cl)cc1 (stereo not shown) [o,p′,-DDT]
Exp. Log(RBA) (estrogen receptor; [4]): −2.85

Clc1cc2c(oc3c(Cl)cc(Cl)c(Cl)c32)c(Cl)c1Cl [1,2,4,6,7,8-hexaCl-dibenzofuran]
Experimental Log EC50 [1, 2]: −6.08
Experimental Log EC50 [1, 3]: −6.08

C[C@]12CC[C@@H]3c4ccccc4CC[C@H]3[C@@H]1CCC2=O [3-deoxyestrone]
Exp. Log(RBA) (estrogen receptor; [4]): −2.2

Clc1cc2oc3cc(Cl)c(Cl)c(Cl)c3c2cc1Cl [1,2,3,7,8-pentaCl-dibenzofuran]
Experimental Log EC50 [1, 2]: −8.12
Experimental Log EC50 [1, 3]: −8.12

Clc1ccc(-c2ccccc2Cl)cc1 [2,4′-dichlorobiphenyl]
Exp. Log(RBA) (estrogen receptor): −3.61

CC(Cc1ccc(O)c(O)c1)C(C)Cc1ccc(O)c(O)c1 (stereo not shown) [nordihydroguariareticacid]
Exp. Log(RBA) (estrogen receptor; [4]): −1.51

C/C(=C(/C)c1ccc(O)cc1)c1ccc(O)cc1 [dimethylstibestrol]
Exp. Log(RBA) (estrogen receptor; [4]): 1.16

C/C=C(/C(=C/C)c1ccc(O)cc1)c1ccc(O)cc1 [dienestrol]
Exp. Log(RBA) (estrogen receptor): 1.57

CC(CCC(=O)O)(c1ccc(O)cc1)c1ccc(O)cc1 [diphenolic acid]
Exp. Log(RBA) (estrogen receptor): −3.13

CC/C(=C(/c1ccc(OCCN(C)C)cc1)c1cccc(O)c1)c1ccccc1 [droloxifene]
Exp. Log(RBA) (estrogen receptor): 1.18

Oc1ccc(-c2cc(Cl)c(Cl)c(Cl)c2Cl)cc1 [2,3,4,5-tetraCl-4′-biphenylol]
Exp. Log(RBA) (estrogen receptor; [4]): −0.64

Oc1c(Cl)cc(-c2cc(Cl)c(O)c(Cl)c2)cc1Cl [3,3′,5,5′-tetraCl-4,4′-biphenyldiol]
Exp. Log(RBA) (estrogen receptor; [4]): −3.25

C[C@H]1CCC[C@H](O)CCCCCc2cc(O)cc(O)c2C(=O)O1 [α-zearalanol]
Exp. Log(RBA) (estrogen receptor; [4]): 1.48

CCCCCCCOC(=O)c1ccc(O)cc1 [heptyl-4-hydroxybenzoate]
Exp. Log(RBA) (estrogen receptor; [4]): −2.09

CC[C@H](c1ccc(O)cc1)[C@@H](CC)c1ccc(O)cc1 [meso-hexestrol]
Exp. Log(RBA) (estrogen receptor): 2.48

O=C1C=CC(=C(c2ccc(O)cc2)c2ccc(O)cc2)C=C1 [aurin]
Exp. Log(RBA) (estrogen receptor): −1.5

CCCCCCCCCc1ccc(O)cc1 [4-nonylphenol]
Exp. Log(RBA) (estrogen receptor): −1.53

O=C(c1ccc(O)cc1)c1ccc(O)cc1 [4,4′-dihydroxybenzophenone]
Exp. Log(RBA) (estrogen receptor; [4]): −2.46
